{"source": "patent US20230337672A1", "about": "“METHOD OF C[…] RUST FUNGUS HAVING RESISTANCE TO QoI FUNGICIDE” (SUMITOMO CHEMICAL COMPANY, LIMITED, priority 2020, published 2023)"}
{"tested_on": "soybean rust fungus (Phakopsora pachyrhizi) having an amino acid substitution of F129L in a mitochondrial cytochrome b protein", "test": "Leaf disc test: preventive spray, then inoculation with soybean rust fungus spores, lesion area investigated", "assay_type": "in vivo", "conditions": "Comparative Test Example 1 (Table A)", "description": "A true leaf of a soybean (cultivar: Kurosengoku) was cut into a diameter of 1 cm to prepare each leaf disc. To each well of a 24 well microplate was dispensed 1 mL of an agar medium (agar concentration 1.2%), and then one of said leaf disc was placed on each well. To a mixture of Sorpol (registered trademark) 1200KX (0.5 µL), DMSO (4.5 µL), and xylene (5 µL) was added a DMSO solution (20 µL) comprising a test compound (10000 ppm), and the resulting mixture was mixed. The resulting mixture was diluted with ion exchange water to prepare a spray solution comprising a prescribed concentration of the test compound. Said spray solution was sprayed into each leaf disc at a ratio of 10 µL per leaf disc. After 1 day, an aqueous suspension of spores of soybean rust fungus (Phakopsora pachyrhizi) having an amino acid substitution of F129L in a mitochondrial cytochrome b protein (1.0 × 10^5/mL) was inoculated by spraying on each leaf disc. After the inoculation, the microplate was placed into an artificial climate chamber (Lighting: 6 hours, Lights-out: 18 hours, Temperature: 23° C., Humidity: 60%). After 1 day, the leaf discs were air-dried until water droplets on the surfaces of the leaf discs disappeared, and the microplate was placed into the artificial climate chamber again for 12 days. Then, lesion area of soybean rust was investigated. As a result, when the prescribed concentration was 50 ppm, each lesion area of leaf disc treated with any one of the Present compound 2, 6, 8, 25, 29, or 35 as the test compound was 30% or less relative to the lesion area of non-treated leaf disc.\nHere, the term of “non-treated” means that a spray solution comprising a test compound was not sprayed into a leaf disc.\nEach test is carried out according to the Test Example 1 by using any one of the Present compound S as the test compound with a prescribed concentration of 12.5 ppm. As a result, control effects on soybean rust can be confirmed in the leaf discs treated with test compounds.\nEach test is carried out according to the Test Example 1 by using any one of the Present compound S as the test compound with a prescribed concentration of 3.1 ppm. As a result, control effects on soybean rust can be confirmed in the leaf discs treated with test compounds.\nEach test was carried out according to the Test Example 1 by using the Present compound 2, 6, 8, 29 or 35, or azoxystrobin, dimoxystrobin, or metominostrobin as the test compound with a prescribed concentration of 50 ppm.", "units": {"Lesion area (%) at the concentration of 50 ppm": "%"}}
{"smiles": "CO/C=C(/C(=O)OC)c1ccccc1Oc1cc(Oc2ccccc2C#N)ncn1", "note": "[Azoxystrobin, azoxystrobin, reference compound]", "Lesion area (%) at the concentration of 50 ppm": 100}
{"smiles": "Cn1nc(Cl)n(-c2cccc3oc(Cc4ccccc4)nc23)c1=O", "note": "[Present compound 29]", "Lesion area (%) at the concentration of 50 ppm": 10}
{"smiles": "CO/C=C(/C(=O)OC)c1cccc2oc(-c3ccccc3)nc12", "note": "[Present compound 2]", "Lesion area (%) at the concentration of 50 ppm": 10}
{"smiles": "CNC(=O)/C(=N/OC)c1ccccc1COc1cc(C)ccc1C", "note": "[Dimoxystrobin, dimoxystrobin, reference compound]", "Lesion area (%) at the concentration of 50 ppm": 100}
{"smiles": "Cn1nc(Cl)n(-c2cccc3oc(COc4ccccc4)nc23)c1=O", "note": "[Present compound 35]", "Lesion area (%) at the concentration of 50 ppm": 0}
{"smiles": "CO/C=C(/C(=O)OC)c1cccc2sc(-c3ccccc3)nc12", "note": "[Present compound 6]", "Lesion area (%) at the concentration of 50 ppm": 30}
{"smiles": "CO/C=C(/C(=O)OC)c1cccc2ccc(-c3ccccc3)cc12", "note": "[Present compound 8]", "Lesion area (%) at the concentration of 50 ppm": 0}
{"smiles": "CNC(=O)/C(=N/OC)c1ccccc1Oc1ccccc1", "note": "[Metominostrobin, metominostrobin, reference compound]", "Lesion area (%) at the concentration of 50 ppm": 100}
